Like-named read-outs stand apart in the source and are kept apart here.
What was measured:
[1] = test system: mice having autism spectrum disorder; experiment: Sociality experiment (three-chamber) in mouse model of autism spectrum disorder; assay type: in vivo; conditions: 500 mg/kg orally once a day for 2 weeks from age 3 weeks
Excerpt: (§1) Pregnant C57BL/6 mice were subcutaneously injected with valproic acid (VPA) at the time when the gestation period reached 12 days. Male mice were selected from the mice that were born from the pregnant mice that were subcutaneously injected with VPA, and these were used as animals for a mouse model of autism spectrum disorder.
(§2) Since 3-week-old mice are at the critical stage, 3-week-old normal mice and 3-week-old mice having autism spectrum disorder were subjected to a sociality experiment, a social cognition experiment, and an anxiety experiment to identify the underlying features. 500 mg/kg of L-serine (hereinafter, referred to as AST-001) was orally administered for 2 weeks to mice having autism spectrum disorder, in which the underlying features had been confirmed. The mice having autism spectrum disorder, to which AST-001 had been orally administered for 2 weeks, were again subjected to a sociality experiment, a social cognition experiment, and an anxiety experiment.
A behavioral experiment, which checks whether or not an experimental mouse moves in the direction of a social object in a case where a social object (a non-familiar mouse) and a non-social object (an empty cage) are placed in both side rooms of a three-chamber having three connected rooms, was carried out (see FIG. 1A). […]

[2] = Pharmacokinetic experiment in healthy adult males; assay type: in vivo, human; conditions: for AUC(0-t): read-out: average AUClast of L-serine without baseline correction
Experimental: (§3) 24 hours before the administration with AST-001 (main component: L-serine), blood was collected to measure the concentration of L-serine. 60 g of an AST-001 powder is a white homogeneous powder without having foreign substances, divided and repackaged into an HDPE bottle or a bottle made of the same material, and the composition of this drug is such that 1,000 mg of the main component L-serine is comprised per 1,000 mg dose. [table]

[3] = test system: mice having autism spectrum disorder; experiment: Anxiety experiment (elevated plus maze) in mouse model of autism spectrum disorder; assay type: in vivo; conditions: 500 mg/kg orally once a day for 2 weeks; vs untreated autism spectrum disorder mouse
Excerpt: as §1, §2
For 2 weeks from the age of 3 weeks, the normal group and the autism spectrum disorder group were subjected to oral administration with water every day once a day, and in the drug group, mice having autism spectrum disorder were orally administered with 500 mg/kg of AST-001 (dissolved in water) once a day. […]

mPFC pyramidal neurons = experiment: Patch clamp of intrinsic excitability in BTBR mice; assay type: in vivo, mouse; conditions: 500 mg/kg orally for 2 weeks
Experimental: BTBR T+tf/J (BTBR), which is an animal of autism spectrum disorder, and C57BL/6 mice (used as a control group) were purchased from Jackson Laboratories. […] However, in a case where BTBR mice were orally administered with 500 mg/kg of AST-001 for 2 weeks, and then the firing rate of the action potential was measured, the firing rate of the action potential in the BTBR mice and the control group mice turned out to be similar (see FIG. 5B).

[4] = test system: mice having autism spectrum disorder; experiment: Social cognition experiment in mouse model of autism spectrum disorder; assay type: in vivo; conditions: 500 mg/kg orally once a day for 2 weeks from age 3 weeks
Excerpt: as §1, §2
A social cognition experiment, which measures whether or not an experimental mouse moves in the direction of a non-familiar mouse in a case where the experimental mouse is placed between a non-familiar mouse and a familiar mouse, was carried out (see FIG. 1B). […]

[5] = test system: cortical layer 5 pyramidal neurons; experiment: Synaptic pruning: dendritic spine density; assay type: in vivo, mouse; conditions: 400 mg/kg orally for 2 weeks
Experimental: A mouse model of autism spectrum disorder was created with the method described in Example 1.1. It is known that in autism spectrum disorder, the number of dendrites increases more than necessary due to troubles in synaptic pruning at the critical stage. Therefore, an experiment, which checks whether or not the number of dendrites can be normalized by AST-001 administration, was carried out. After oral administration of 400 mg/kg of AST-001 for 2 weeks to 3-week-old male autism spectrum disorder mice (n=8), it was checked whether or not the spine density of the synaptic dendrites was similar to that of the control group male normal mice (n=3). […] As a result, it was confirmed that oral administration of AST-001 normalizes synaptic pruning at the critical stage in autism spectrum disorder.

healthy adults = experiment: Safety evaluation in healthy adults; assay type: in vivo, human; conditions: single oral up to 30 g per day; 15 g twice a day for 7 days
Experimental: as §3, with “[…] As a result, it was confirmed that AST-001 can be safely administered within a dose range of 10 to 30 g per day for indications that require repeated administration. The results of the pharmacokinetic analysis in the AST-001 repeated administration test in healthy adult males are as shown in Table 2 below.” for “[table]”

SMILES: N[C@@H](CO)C(=O)O [AST-001, L-serine]
- interaction time with the social object vs interaction time with the empty cage [1]: significantly higher
- preference index for the social object [1]: high
- CLss/F ([2]; 15 g twice a day for 7 days, N = 7, mean ± SD): 21.97 ± 5.99 L/h
- AUC ([2]; male, human, blood, oral, 15 g, 15 g twice a day for 1 week, steady state, read-out: average AUCtau of L-serine without baseline correction): ~883 µg·h/mL
- AUC ([2]; male, human, blood, oral, 15 g, 15 g twice a day for 7 days, N = 7, mean ± SD, read-out: AUCtau, ss): 729 ± 202 µg·h/mL
- Cmax ([2]; male, human, blood, oral, 15 g twice a day for 7 days, N = 7, mean ± SD): 212 ± 56.2 µg/mL
- Vd/F ([2]; male, human, blood, oral, 15 g twice a day for 7 days, N = 7, mean ± SD, read-out: Vz/F): 348 ± 220 L
- half-life ([2]; male, human, blood, oral, 15 g twice a day for 7 days, N = 7, mean ± SD, read-out: t1/2 (converted)): 11 ± 5.17 h
- Tmax ([2]; male, human, blood, oral, 15 g twice a day for 7 days, N = 7, median value): 1 h
- half-life ([2]; male, human, blood, oral, read-out: average half-life of extrinsically administered L-serine): 6.5 to 14 h
- AUC(0-t) ([2]; male, human, blood, oral, single administration 10 g): 613 µg·h/mL
- AUC(0-t) ([2]; male, human, blood, oral, single administration 20 g): 1130 µg·h/mL
- AUC(0-t) ([2]; male, human, blood, oral, single administration 30 g): 1530 µg·h/mL
- half-life ([2]; male, human, blood, po, 15 g orally twice a day for 7 days, steady state, read-out: average half-life (converted)): ~11 h
- Cmax, AUClast, and AUCinf with increasing dosage ([2]; single oral 10 g, 15 g, 20 g or 30 g): linearly increased
- average accumulation index ([2]; steady state vs single administration with 15 g): about 1.7 times
- time staying in the closed-arm space of the elevated plus maze [3]: short time
- time staying in the open-arm space of the elevated plus maze [3]: remarkably long time
- firing rate of the action potential, BTBR mice vs control group mice (mPFC pyramidal neurons): similar
- interaction time with the non-familiar mouse vs interaction time with the familiar mouse [4]: significantly higher
- preference index for the non-familiar mouse [4]: high
- number of dendrites (spine density of the synaptic dendrites) [5]: significantly reduced and similar to that of the control group
- safety and drug tolerance (healthy adults): excellent safety and drug tolerance
